According to patent US9115134B2, “6-triazolopyridazine sulfanyl benzothiazole derivatives as MET inhibitors” (SANOFI, priority 2007, dated 2015):

What was measured:
[1] = biological target: T1, MET (Homo sapiens, UniProt P08581); assay: Test B: Inhibition of the autophosphorylation of MET; ELISA technique (pppY1230,1234,1235) in MKN45 cells; format: cell-based; design: Seed MKN45 cells into 96-well plates (Cell coat BD polylysine) at 20 000 cells/well; endogenous in cells; host or cells: MKN45 cells; conditions: 1 h treatment, PhosphoMET ELISA
Description: Leave to adhere for 24 hours in an incubator.
The cells are treated the day after seeding with the products at 6 concentrations in duplicate for 1 h. At least 3 control wells are treated with the same final amount of DMSO.
Product dilution: Stock at 10 mM in pure DMSO—range from 10 mM to 30 μM with an increment of 3 in pure DMSO—intermediate 1/50 dilutions in culture medium and then removal of 10 μl added directly to the cells (200 μl): final range of 10 000 to 30 nM.
At the end of the incubation, carefully remove the supernatant and rinse with 200 μl of PBS. Next, place 100 μl of lysis buffer directly in the wells on ice and incubate at 4° C. for 30 minutes. Lysis buffer: 10 mM Tris HCl, pH7.4, 100 mM NaCl, 1 mM EDTA, 1 mM EGTA, 1% Triton X-100, 10% glycerol, 0.1% SDS, 0.5% deoxycholate, 20 mM NaF, 2 mM Na3VO4, 1 mM PMSF and cocktail of antiproteases.
The 100 μl of lysates are transferred into a V-bottomed polypropylene plate and the ELISA is performed immediately, or the plate is frozen at −80° C. • b) PhosphoMET ELISA BioSource Kit KH00281
Into each well of the kit plate, add 70 μl of kit dilution buffer+30 μL of cell lysate or 30 μl of lysis buffer for the blanks. Incubate for 2 h with gentle agitation at ambient temperature.
Rinse the wells 4 times with 400 μl of kit washing buffer. Incubate with 100 μl of anti-phospho MET antibody for 1 hour at ambient temperature.
Rinse the wells 4 times with 400 μl of kit washing buffer. Incubate with 100 μl of anti-rabbit HRP antibody for 30 minutes at ambient temperature (except for the wells of chromogen alone).
Rinse the wells 4 times with 400 μl of kit washing buffer. Introduce 100 μL of chromogen and incubate for 30 minutes in the dark at ambient temperature.
(§1) Stop the reaction with 100 μl of stop solution. Read without delay at […], 0.1 second on Wallac Victor plate reader. • C) Test C: Measurement of cell proliferation by ^14c-thymidine pulse
Target sequence in this assay (P08581 25-1390): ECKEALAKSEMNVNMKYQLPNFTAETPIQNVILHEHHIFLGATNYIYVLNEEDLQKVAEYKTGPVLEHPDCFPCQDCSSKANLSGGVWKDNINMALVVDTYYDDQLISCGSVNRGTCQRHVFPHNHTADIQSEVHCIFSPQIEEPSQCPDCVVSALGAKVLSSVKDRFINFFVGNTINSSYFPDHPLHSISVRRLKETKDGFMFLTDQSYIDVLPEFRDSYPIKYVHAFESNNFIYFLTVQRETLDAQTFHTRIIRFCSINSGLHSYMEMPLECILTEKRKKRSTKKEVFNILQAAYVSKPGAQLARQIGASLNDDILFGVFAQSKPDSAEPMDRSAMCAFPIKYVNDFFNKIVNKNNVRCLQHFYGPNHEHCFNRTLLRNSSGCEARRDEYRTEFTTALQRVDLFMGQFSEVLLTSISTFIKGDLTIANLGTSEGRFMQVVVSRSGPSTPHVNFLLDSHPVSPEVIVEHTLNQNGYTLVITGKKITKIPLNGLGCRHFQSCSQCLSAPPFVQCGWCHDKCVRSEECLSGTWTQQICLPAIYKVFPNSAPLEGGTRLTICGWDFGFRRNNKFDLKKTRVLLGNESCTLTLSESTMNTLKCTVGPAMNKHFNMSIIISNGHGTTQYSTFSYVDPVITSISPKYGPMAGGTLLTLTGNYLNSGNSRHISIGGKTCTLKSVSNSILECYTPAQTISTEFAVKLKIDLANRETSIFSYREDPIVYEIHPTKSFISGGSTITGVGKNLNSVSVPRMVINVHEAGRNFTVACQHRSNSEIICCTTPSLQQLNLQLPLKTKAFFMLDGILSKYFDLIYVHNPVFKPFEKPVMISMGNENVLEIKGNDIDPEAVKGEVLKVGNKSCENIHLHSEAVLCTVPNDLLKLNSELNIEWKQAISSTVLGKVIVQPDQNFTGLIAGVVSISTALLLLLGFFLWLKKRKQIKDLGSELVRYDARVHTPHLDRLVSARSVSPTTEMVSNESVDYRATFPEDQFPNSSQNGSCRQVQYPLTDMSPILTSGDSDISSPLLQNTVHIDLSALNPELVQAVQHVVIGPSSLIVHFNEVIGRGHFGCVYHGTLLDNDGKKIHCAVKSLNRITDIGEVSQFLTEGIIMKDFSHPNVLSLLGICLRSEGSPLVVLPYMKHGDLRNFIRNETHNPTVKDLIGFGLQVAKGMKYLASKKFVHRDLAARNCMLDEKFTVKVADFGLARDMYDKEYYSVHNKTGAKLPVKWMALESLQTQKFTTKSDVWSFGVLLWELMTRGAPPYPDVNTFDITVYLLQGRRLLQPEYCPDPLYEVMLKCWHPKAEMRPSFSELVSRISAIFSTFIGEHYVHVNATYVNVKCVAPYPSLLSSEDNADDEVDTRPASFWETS

[2] = tested on: HCT116 cells, MKN45 cells; assay: Test C: Measurement of cell proliferation by 14C-thymidine pulse; format: cell-based; conditions: 14C-thymidine incorporation, 96 h of treatment; cell line not given
Description: as §1
The cells are seeded into Cytostar 96-well plates in 180 μl for 4 hours at 37° C. and 5% CO2: HCT116 cells at a rate of 2500 cells per well in DMEM medium+10% foetal calf serum+1% L-glutamine and MKN45 cells at a rate of 7500 cells per well in RPMI medium+10% foetal calf serum+1% L-glutamine. After these 4 hours of incubation, the products are added in 10 μl as a 20-fold concentrated solution according to the dilution method mentioned for the ELISA. The products are tested at 10 concentrations in duplicate from 10 000 nM to 0.3 nM with an increment of 3.
After treatment for 72 h, add 10 μl of ^14C-thymidine at 10 μCi/ml to obtain 0.1 μCi per well. The ^14C-thymidine incorporation is measured on a Micro-Beta machine (Perkin-Elmer) after 24 hours of pulse and 96 h of treatment.
All the steps of the assay are automated on BIOMEK 2000 or TECAN stations.

[3] = biological target: T1, MET; assay: Test A: HTRF MET assay in 96-well format; format: biochemical; design: The His-Tev-MET (956-1390) recombinant DNA in pFastBac (Invitrogen) is transfected into insect cells; His tag (N, cleaved yes); TEV cleavage site (N); made in house; host or cells: SF21 insect cells (baculovirus, pFastBac); conditions: MET 5 nM, 10 μM ATP
Description: I) Expression and Purification of MET, Cytoplasmic Domain
The His-Tev-MET (956-1390) recombinant DNA in pFastBac (Invitrogen) is transfected into insect cells, and after several viral amplification steps, the final baculovirus stock is tested for the expression of the protein of interest.
After infection for 72 h at 27° C. with the recombinant virus, the SF21 cell cultures are harvested by centrifugation and the cell pellets are stored at −80° C.
The cell pellets are resuspended in lysis buffer (buffer A [50 mM HEPES, pH 7.5, 250 mM NaCl, 10% glycerol, 1 mM TECP]; +cocktail of protease inhibitors, Roche Diagnostics, without EDTA, ref 1873580), stirred at 4° C. until the mixture is homogeneous and then lyzed mechanically using a “Dounce” type apparatus.
After centrifugation, the lysis supernatant is incubated for 2 h at 4° C. with nickel chelate resin (His-Trap 6 Fast Flow™, GE HealthCare). After washing with 20 volumes of buffer A, the suspension is packed into a column, and the proteins are eluted with a gradient of buffer B ([…]+290 mM imidazole).
The fractions containing the protein of interest for the purpose of electrophoretic analysis (SDS PAGE) are combined, concentrated by ultrafiltration (10 kDa cut-off) and injected onto an exclusion chromatography column (Superdex™ 200, GE HealthCare) equilibrated in buffer A.
After enzymatic cleavage of the histidine tag, the protein is reinjected onto a new IMAC nickel chelate chromatography column (His-Trap 6 Fast Flow™, GE HealthCare) equilibrated in buffer A. The fractions eluted with a gradient of buffer B and containing the protein of interest after electrophoresis (SDS PAGE) are finally combined and conserved at −80° C.
For the production of autophosphorylated protein, the previous fractions are incubated for 1 h at ambient temperature after the addition of 2 mM ATP, 2 mM MgCl2, and 4 mM Na3VO4. After the reaction has been stopped with 5 mM of EDTA, the reaction mixture is injected onto a HiPrep desalifying column (GE HealthCare) preequilibrated in buffer A+4 mM Na3VO4, and the fractions containing the protein of interest (SDS PAGE analysis) are combined and stored at −80° C. The degree of phosphorylation is verified by mass spectrometry (LC-MS) and by peptide mapping.
• A) Test A: HTRF MET assay in 96-well format
MET at a final concentration of 5 nM is incubated in a final volume of 50 μl of enzymatic reaction in the presence of the test molecule (for a final concentration range of from 0.17 nM to 10 μM, 3% DMSO final concentration) in 10 mM MOPS buffer, pH 7.4, 1 mM DTT, 0.01% Tween 20. The reaction is initiated with the substrate solution to obtain final concentrations of 1 μg/ml poly-(GAT), 10 μM ATP and 5 mM MgCl2. After incubation for 10 min at ambient temperature, the reaction is stopped with a 30 μl mix so as to obtain a final solution of 50 mM Hepes pH 7.5, 500 mM potassium fluoride, 0.1% BSA and 133 mM EDTA in the presence of 80 ng of streptavidin 61SAXLB Cis-Bio Int. and 18 ng of anti-phosphotyrosine Mab PT66-Europium Cryptate per well. After incubation for 2 hours at ambient temperature, the reading is taken at 2 wavelengths, 620 nm and 665 nm, on a reader for the TRACE/HTRF technique and the % inhibition is calculated from the 665/620 ratios.
Target sequence in this assay (P08581 956-1390): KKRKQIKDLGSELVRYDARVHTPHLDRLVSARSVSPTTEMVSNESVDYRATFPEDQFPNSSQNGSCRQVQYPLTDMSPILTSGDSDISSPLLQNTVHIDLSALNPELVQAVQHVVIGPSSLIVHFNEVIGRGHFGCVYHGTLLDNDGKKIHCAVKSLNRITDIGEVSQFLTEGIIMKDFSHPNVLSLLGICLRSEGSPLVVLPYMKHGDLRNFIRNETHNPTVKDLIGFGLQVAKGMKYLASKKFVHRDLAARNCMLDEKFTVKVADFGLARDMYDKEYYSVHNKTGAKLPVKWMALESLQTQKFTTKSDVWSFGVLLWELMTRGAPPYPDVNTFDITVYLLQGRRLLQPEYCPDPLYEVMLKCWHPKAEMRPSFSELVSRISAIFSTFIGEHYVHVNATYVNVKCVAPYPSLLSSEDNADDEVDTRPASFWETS

IC50 [1]	IC50 [2]	IC50 [3]	SMILES
< 100 nM	< 1000 nM	< 100 nM	COC(=O)Nc1nc2ccc(Sc3nnc4ccc(-c5ccc(F)cc5)nn34)cc2s1 [Example 1, Methyl (6-{[6-(4-fluorophenyl)[1,2,4]triazolo[4,3-b]pyridazin-3-yl]sulphanyl}-1,3-benzothiazol-2-yl)carbamate]
100 to 500 nM	< 1000 nM	< 100 nM	CC(C)(C)OC(=O)Nc1nc2ccc(Sc3nnc4ccc(-c5ccc(F)cc5)nn34)cc2s1 [Example 2, 1,1-Dimethylethyl (6-{[6-(4-fluorophenyl)[1,2,4]triazolo[4,3-b]pyridazin-3-yl]sulphanyl}-1,3-benzothiazol-2-yl)carbamate]
< 100 nM	< 1000 nM	< 100 nM	Nc1nc2ccc(Sc3nnc4ccc(-c5ccc(F)cc5)nn34)cc2s1 [Example 3, 6-{[6-(4-Fluorophenyl)[1,2,4]triazolo[4,3-b]pyridazin-3-yl]sulphanyl}-1,3-benzothiazol-2-amine]
< 100 nM	< 1000 nM	< 100 nM	O=C(NCCN1CCOCC1)Nc1nc2ccc(Sc3nnc4ccc(-c5ccc(F)cc5)nn34)cc2[nH]1 [Example 6, 1-(6-{[6-(4-Fluorophenyl)[1,2,4]triazolo[4,3-b]pyridazin-3-yl]sulphanyl}-1H-benzimidazol-2-yl)-3-(2-morpholin-4-ylethyl)urea]
100 to 500 nM	< 1000 nM	< 100 nM	Nc1nc2ccc(Sc3nnc4ccc(-c5ccc(F)cc5)nn34)cc2[nH]1 [Example 7, 6-{[6-(4-Fluorophenyl)[1,2,4]triazolo[4,3-b]pyridazin-3-yl]sulphanyl}-1H-benzimidazol-2-amine]
> 500 nM	< 10000 nM	< 100 nM	Nc1nc2ccc(Sc3ccc(C4=Nn5c(nnc5Sc5ccc6nc(N)sc6c5)CC4)cc3)cc2s1 [Example 8, 6-[(4-{3-[(2-amino-1,3-benzothiazol-6-yl)sulphanyl]-7,8-dihydro[1,2,4]triazolo-[4,3-b]pyridazin-6-yl}phenyl)sulphanyl]-1,3-benzothiazol-2-amine]
< 100 nM	< 1000 nM	< 100 nM	O=C(NCCN1CCOCC1)Nc1nc2ccc(Sc3nnc4ccc(-c5ccc(F)cc5)nn34)cc2s1 [Example 9, 1-(6-{[6-(4-Fluorophenyl)[1,2,4]triazolo[4,3-b]pyridazin-3-yl]sulphanyl}-1,3-benzothiazol-2-yl)-3-(2-morpholin-4-ylethyl)urea]
< 100 nM	< 1000 nM	< 100 nM	O=C(NCCN1CCOCC1)Nc1nc2ccc(Sc3nnc4cccnn34)cc2s1 [Example 10, 1-(2-Morpholin-4-ylethyl)-3-[6-([1,2,4]triazolo[4,3-b]pyridazin-3-ylsulphanyl)-1,3-benzothiazol-2-yl]urea]
< 100 nM	< 1000 nM	< 100 nM	C[C@@H]1CN(CCNC(=O)Nc2nc3ccc(Sc4nnc5ccc(-c6ccc(F)cc6)nn45)cc3s2)C[C@H](C)O1 [Example 11, 1-{2-[(2R,6S)-2,6-dimethylmorpholin-4-yl]ethyl}-3-(6-{[6-(4-fluorophenyl)-[1,2,4]triazolo[4,3-b]pyridazin-3-yl]sulphanyl}-1,3-benzothiazol-2-yl)urea]
< 100 nM	< 1000 nM	< 100 nM	O=C(Nc1nc2ccc(Sc3nnc4ccc(-c5ccc(F)cc5)nn34)cc2s1)OCCN1CCOCC1 [Example 12, 2-Morpholin-4-ylethyl (6-{[6-(4-fluorophenyl)[1,2,4]triazolo[4,3-b]pyridazin-3-yl]sulphanyl}-1,3-benzothiazol-2-yl)carbamate]
< 100 nM	< 1000 nM	< 100 nM	CN1CCN(CCNC(=O)Nc2nc3ccc(Sc4nnc5n4N=C(c4ccc(F)cc4)CC5)cc3s2)CC1 [Example 13, 1-(6-{[6-(4-Fluorophenyl)-7,8-dihydro[1,2,4]triazolo[4,3-b]pyridazin-3-yl]sulphanyl}-1,3-benzothiazol-2-yl)-3-[2-(4-methylpiperazin-1-yl)ethyl]urea]
< 100 nM	< 1000 nM	< 100 nM	CN1CCN(CCNC(=O)Nc2nc3ccc(Sc4nnc5ccc(-c6ccc(F)cc6)nn45)cc3s2)CC1 [Example 14, 1-(6-{[6-(4-Fluorophenyl)[1,2,4]triazolo[4,3-b]pyridazin-3-yl]sulphanyl}-1,3-benzothiazol-2-yl)-3-[2-(4-methylpiperazin-1-yl)ethyl]urea]

SMILES	IC50 [1]	IC50 [2]	IC50 [3]
COC(=O)Nc1nc2ccc(Sc3nnc4ccc(-c5ccc(F)cc5)nn34)cc2[nH]1 [Example 4, Methyl (6-{[6-(4-fluorophenyl)[1,2,4]triazolo[4,3-b]pyridazin-3-yl]sulphanyl}-1H-benzimidazol-2-yl)carbamate]	< 100 nM	< 1000 nM	< 100 nM
COC(=O)Nc1nc2ccc(Sc3nnc4n3N=C(c3ccc(F)cc3)CC4)cc2[nH]1 [Example 5, Methyl (6-{[6-(4-fluorophenyl)-7,8-dihydro[1,2,4]triazolo[4,3-b]pyridazin-3-yl]sulphanyl}-1H-benzimidazol-2-yl)carbamate]	100 to 500 nM	< 1000 nM	< 100 nM
